Experimental data taken from ChEMBL document CHEMBL4665648, “Potent and selective inhibitors of receptor-interacting protein kinase 1 that lack an aromatic back pocket group” (Bioorg Med Chem Lett, 2019).

Tests used:
[1] = target: Aurora kinase A (Homo sapiens) (UniProt O14965); test: Inhibition of recombinant human His-tagged full length Aurora A expressed in baculovirus expression system using Ser/Thr 01 as substrate at 10 uM incubated for 60 mins by Z'-Lyte assay relative to control
[2] = target: Phosphorylase b kinase gamma catalytic chain, skeletal muscle/heart isoform (Homo sapiens) (UniProt Q16816); test: Inhibition of recombinant human GST-tagged full length PHKG1 expressed in baculovirus expression system using Ser/Thr 07 as substrate at 10 uM incubated for 60 mins by Z'-lyte assay relative to control
[3] = target: Fibroblast growth factor receptor 1 (Homo sapiens) (UniProt P11362); test: Inhibition of recombinant human His-tagged FGFR1 (308 to 731 residues) expressed in baculovirus expression system using Tyr 01 as substrate at 10 uM incubated for 60 mins by Z'-Lyte assay relative to control
[4] = target: Tyrosine-protein kinase Fgr (Homo sapiens) (UniProt P09769); test: Inhibition of recombinant human C-terminal His-tagged full length FGR expressed in baculovirus expression system using Tyr 02 as substrate at 10 uM incubated for 60 mins by Z'-Lyte assay relative to control
[5] = target: Macrophage-stimulating protein receptor (Homo sapiens) (UniProt Q04912); test: Inhibition of recombinant human GST-tagged full length RON (983 to 1400 residues) expressed in baculovirus expression system using Tyr 06 as substrate at 10 uM incubated for 60 mins by Z'-Lyte assay relative to control
[6] = target: Cyclin-dependent kinase 1/cyclin B1 (Homo sapiens) (UniProt P06493+P14635); test: Inhibition of recombinant human His-tagged full length CDK1/Cyclin B expressed in baculovirus expression system using Ser/Thr 18 as substrate at 10 uM incubated for 60 mins by Z'-Lyte assay relative to control
[7] = target: Dual specificity protein kinase CLK4 (Homo sapiens) (UniProt Q9HAZ1); test: Inhibition of tracer 236 binding to recombinant human GST-tagged full length CLK4 expressed in baculovirus expression system at 10 uM incubated for 60 mins by Lanthascreen assay relative to control
[8] = target: Tyrosine-protein kinase receptor UFO (Homo sapiens) (UniProt P30530); test: Inhibition of recombinant human GST-tagged full length AXL expressed in insect expression system using Tyr 06 as substrate at 10 uM incubated for 60 mins by Z'-Lyte assay relative to control
[9] = target: Tyrosine-protein kinase Tec (Homo sapiens) (UniProt P42680); test: Inhibition of tracer 178 binding to recombinant human His-tagged full length TEC expressed in baculovirus expression system at 10 uM incubated for 60 mins by Lanthascreen assay relative to control
[10] = target: Dual specificity tyrosine-phosphorylation-regulated kinase 1A (Homo sapiens) (UniProt Q13627); test: Inhibition of recombinant human GST-tagged full length DYRK1A expressed in baculovirus expression system using Ser/Thr 18 as substrate at 10 uM incubated for 60 mins by Z'-Lyte assay relative to control
[11] = target: Macrophage colony-stimulating factor 1 receptor (Homo sapiens) (UniProt P07333); test: Inhibition of recombinant human His-tagged CSF1R (538 to 910 residues) expressed in baculovirus expression system using Tyr 01 as substrate at 10 uM incubated for 60 mins by Z'-Lyte assay relative to control
[12] = target: High affinity nerve growth factor receptor (Homo sapiens) (UniProt P04629); test: Inhibition of recombinant human His-tagged TRKA (441 to 796 residues) expressed in baculovirus expression system using Tyr 01 as substrate at 10 uM incubated for 60 mins by Z'-Lyte assay relative to control
[13] = target: Beta-adrenergic receptor kinase 1 (Homo sapiens) (UniProt P25098); test: Inhibition of recombinant human His-tagged full length GRK2 expressed in baculovirus expression system using Ser/Thr 16 as substrate at 10 uM incubated for 60 mins by Z'-Lyte assay relative to control
[14] = target: Tyrosine-protein kinase BTK (Homo sapiens) (UniProt Q06187); test: Inhibition of recombinant human His-tagged full length BTK expressed in baculovirus expression system using Tyr 01 as substrate at 10 uM incubated for 60 mins by Z'-Lyte assay relative to control
[15] = target: STE20-like serine/threonine-protein kinase (Homo sapiens) (UniProt Q9H2G2); test: Inhibition of tracer 236 binding to recombinant human GST-tagged full length SLK expressed in baculovirus expression system at 10 uM incubated for 60 mins by Lanthascreen assay relative to control
[16] = target: Epidermal growth factor receptor (Homo sapiens) (UniProt P00533); test: Inhibition of recombinant human GST-tagged EGFR (668 to 1210 residues) expressed in baculovirus expression system using Tyr 4 as substrate at 10 uM incubated for 60 mins by Z'-Lyte assay relative to control
[17] = target: MAP kinase-activated protein kinase 5 (Homo sapiens) (UniProt Q8IW41); test: Inhibition of recombinant human His-tagged full length PRAK expressed in baculovirus expression system using Ser/Thr 04 as substrate at 10 uM incubated for 60 mins by Z'-lyte assay relative to control
[18] = target: 5'-AMP-activated protein kinase catalytic subunit alpha-1 (Homo sapiens) (UniProt Q13131); test: Inhibition of PRKAA1 (unknown origin) by selectscreen kinase assay; conditions: dose 10.0 µM, time 60.0 min
[19] = target: Vascular endothelial growth factor receptor 2 (Homo sapiens) (UniProt P35968); test: Inhibition of recombinant human His-tagged KDR (789 to 1356 residues) expressed in baculovirus expression system using Tyr 01 as substrate at 10 uM incubated for 60 mins by Z'-lyte assay relative to control
[20] = target: Bone morphogenetic protein receptor type-1A (Homo sapiens) (UniProt P36894); test: Inhibition of tracer 178 binding to recombinant human N-terminal GST-tagged full length BMPR1A expressed in insect expression system at 10 uM incubated for 60 mins by Lanthascreen assay relative to control
[21] = target: G protein-coupled receptor kinase 6 (Homo sapiens) (UniProt P43250); test: Inhibition of recombinant human GST-tagged full length GRK6 expressed in baculovirus expression system using Ser/Thr 16 as substrate at 10 uM incubated for 60 mins by Z'-Lyte assay relative to control
[22] = Half life in Sprague-Dawley rat at 0.5 mg/kg, iv or 2 mg/kg, po; assay type: ADME, organism-based; conditions: in vivo
[23] = target: Serine/threonine-protein kinase Sgk3 (Homo sapiens) (UniProt Q96BR1); test: Inhibition of recombinant human GST-tagged full length SGK3 (87 to 496 residues) expressed in baculovirus expression system using Ser/Thr 06 as substrate at 10 uM incubated for 60 mins by Z'-Lyte assay relative to control
[24] = target: CDK9/cyclin T1 (Homo sapiens) (UniProt O60563+P50750); test: Inhibition of recombinant human His-tagged full length CDK9/Cyclin T1 expressed in baculovirus expression system using CDK7/9tide as substrate at 10 uM incubated for 60 mins by Adapta assay relative to control
[25] = target: G protein-coupled receptor kinase 3 (Homo sapiens) (UniProt P35626); test: Inhibition of recombinant human GST-tagged full length GRK3 expressed in baculovirus expression system using Ser/Thr 16 as substrate at 10 uM incubated for 60 mins by Z'-Lyte assay relative to control

Sequence of Cyclin-dependent kinase 1/cyclin B1 (Homo sapiens) (P06493 whole entry, looked up): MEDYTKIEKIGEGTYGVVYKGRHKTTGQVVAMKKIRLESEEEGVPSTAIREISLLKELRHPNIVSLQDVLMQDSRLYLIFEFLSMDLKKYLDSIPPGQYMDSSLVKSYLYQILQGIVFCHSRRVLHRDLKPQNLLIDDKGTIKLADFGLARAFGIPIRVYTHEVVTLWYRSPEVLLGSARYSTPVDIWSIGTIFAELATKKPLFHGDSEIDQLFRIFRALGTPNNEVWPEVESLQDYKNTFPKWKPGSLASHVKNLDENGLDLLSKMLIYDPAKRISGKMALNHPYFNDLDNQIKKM
Sequence of Cyclin-dependent kinase 1/cyclin B1 (Homo sapiens) (P14635 whole entry, looked up): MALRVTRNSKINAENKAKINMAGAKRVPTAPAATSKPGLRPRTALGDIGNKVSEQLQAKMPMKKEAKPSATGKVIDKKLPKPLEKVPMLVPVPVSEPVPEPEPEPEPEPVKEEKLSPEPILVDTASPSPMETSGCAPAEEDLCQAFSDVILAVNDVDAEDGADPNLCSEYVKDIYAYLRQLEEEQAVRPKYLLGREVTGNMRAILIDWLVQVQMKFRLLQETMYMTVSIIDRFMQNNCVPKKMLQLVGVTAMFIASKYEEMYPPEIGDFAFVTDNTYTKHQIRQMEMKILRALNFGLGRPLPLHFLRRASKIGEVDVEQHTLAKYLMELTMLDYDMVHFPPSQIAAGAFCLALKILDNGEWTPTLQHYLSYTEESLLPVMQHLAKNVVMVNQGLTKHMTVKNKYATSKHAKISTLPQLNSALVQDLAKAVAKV
Sequence of Serine/threonine-protein kinase Sgk3 (Homo sapiens) (Q96BR1 whole entry, the tested form may be a part): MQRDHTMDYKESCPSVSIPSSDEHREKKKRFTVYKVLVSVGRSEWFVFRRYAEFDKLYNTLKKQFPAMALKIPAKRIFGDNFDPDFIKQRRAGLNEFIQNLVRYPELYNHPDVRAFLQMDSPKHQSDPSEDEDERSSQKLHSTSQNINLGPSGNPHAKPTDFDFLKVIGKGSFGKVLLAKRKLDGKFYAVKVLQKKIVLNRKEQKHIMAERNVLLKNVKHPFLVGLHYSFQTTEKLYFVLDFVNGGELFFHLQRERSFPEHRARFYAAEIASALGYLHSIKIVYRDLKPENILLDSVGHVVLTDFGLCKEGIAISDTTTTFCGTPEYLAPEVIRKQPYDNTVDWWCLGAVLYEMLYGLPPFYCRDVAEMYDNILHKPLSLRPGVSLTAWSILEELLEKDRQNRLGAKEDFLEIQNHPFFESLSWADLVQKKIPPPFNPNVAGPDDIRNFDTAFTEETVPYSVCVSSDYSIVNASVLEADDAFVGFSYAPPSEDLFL
Sequence of Bone morphogenetic protein receptor type-1A (Homo sapiens) (P36894 whole entry): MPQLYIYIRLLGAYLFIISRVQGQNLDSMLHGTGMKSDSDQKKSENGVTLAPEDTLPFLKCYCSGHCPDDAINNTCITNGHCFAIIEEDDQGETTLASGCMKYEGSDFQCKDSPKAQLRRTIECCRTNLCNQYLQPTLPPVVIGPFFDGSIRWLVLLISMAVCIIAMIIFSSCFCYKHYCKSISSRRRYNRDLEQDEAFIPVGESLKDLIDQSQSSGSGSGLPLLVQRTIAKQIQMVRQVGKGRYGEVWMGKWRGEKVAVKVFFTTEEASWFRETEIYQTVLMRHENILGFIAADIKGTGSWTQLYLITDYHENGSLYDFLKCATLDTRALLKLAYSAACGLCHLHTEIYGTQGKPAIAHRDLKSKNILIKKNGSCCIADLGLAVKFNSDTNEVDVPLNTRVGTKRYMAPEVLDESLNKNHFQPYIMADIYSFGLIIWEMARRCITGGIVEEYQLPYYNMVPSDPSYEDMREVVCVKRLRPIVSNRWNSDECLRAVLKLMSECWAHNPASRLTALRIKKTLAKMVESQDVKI
Sequence of Fibroblast growth factor receptor 1 (Homo sapiens) (P11362 22-822 limits assumed): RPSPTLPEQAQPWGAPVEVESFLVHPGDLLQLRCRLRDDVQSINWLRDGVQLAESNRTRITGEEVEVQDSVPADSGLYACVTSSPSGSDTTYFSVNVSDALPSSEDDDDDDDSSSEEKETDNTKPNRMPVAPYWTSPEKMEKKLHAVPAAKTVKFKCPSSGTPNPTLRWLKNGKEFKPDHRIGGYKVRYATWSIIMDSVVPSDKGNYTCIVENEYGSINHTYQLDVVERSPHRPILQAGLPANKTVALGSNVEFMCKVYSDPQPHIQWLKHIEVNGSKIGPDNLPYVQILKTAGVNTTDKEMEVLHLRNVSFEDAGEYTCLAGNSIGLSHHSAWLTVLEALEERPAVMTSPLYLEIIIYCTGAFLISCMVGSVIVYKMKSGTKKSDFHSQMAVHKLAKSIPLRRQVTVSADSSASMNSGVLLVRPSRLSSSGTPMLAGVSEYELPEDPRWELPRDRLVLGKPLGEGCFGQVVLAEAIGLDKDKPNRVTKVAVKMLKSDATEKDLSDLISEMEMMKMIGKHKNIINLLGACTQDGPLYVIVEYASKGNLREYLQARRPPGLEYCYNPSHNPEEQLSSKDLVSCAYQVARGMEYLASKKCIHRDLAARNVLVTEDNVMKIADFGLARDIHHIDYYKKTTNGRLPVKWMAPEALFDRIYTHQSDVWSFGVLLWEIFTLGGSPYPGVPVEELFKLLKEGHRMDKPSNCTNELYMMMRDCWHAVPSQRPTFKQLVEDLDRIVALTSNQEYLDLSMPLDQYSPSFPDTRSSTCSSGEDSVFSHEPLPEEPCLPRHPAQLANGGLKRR
Sequence of MAP kinase-activated protein kinase 5 (Homo sapiens) (Q8IW41 whole entry): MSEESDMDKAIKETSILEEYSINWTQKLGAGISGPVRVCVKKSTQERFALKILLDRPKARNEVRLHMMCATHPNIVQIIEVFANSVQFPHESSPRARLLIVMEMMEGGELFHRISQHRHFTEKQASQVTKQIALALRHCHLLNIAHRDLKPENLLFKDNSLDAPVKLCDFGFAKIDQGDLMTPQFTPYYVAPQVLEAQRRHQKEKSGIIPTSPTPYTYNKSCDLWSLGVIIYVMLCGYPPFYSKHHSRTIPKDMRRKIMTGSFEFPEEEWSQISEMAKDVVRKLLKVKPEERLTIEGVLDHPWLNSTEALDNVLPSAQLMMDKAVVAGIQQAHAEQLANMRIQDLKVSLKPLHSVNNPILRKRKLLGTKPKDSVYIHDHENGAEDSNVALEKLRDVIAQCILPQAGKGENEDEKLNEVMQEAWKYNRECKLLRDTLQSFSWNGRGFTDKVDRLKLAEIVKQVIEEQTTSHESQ
Sequence of Phosphorylase b kinase gamma catalytic chain, skeletal muscle/heart isoform (Homo sapiens) (Q16816 whole entry, looked up, the tested form may be a part, canonical isoform): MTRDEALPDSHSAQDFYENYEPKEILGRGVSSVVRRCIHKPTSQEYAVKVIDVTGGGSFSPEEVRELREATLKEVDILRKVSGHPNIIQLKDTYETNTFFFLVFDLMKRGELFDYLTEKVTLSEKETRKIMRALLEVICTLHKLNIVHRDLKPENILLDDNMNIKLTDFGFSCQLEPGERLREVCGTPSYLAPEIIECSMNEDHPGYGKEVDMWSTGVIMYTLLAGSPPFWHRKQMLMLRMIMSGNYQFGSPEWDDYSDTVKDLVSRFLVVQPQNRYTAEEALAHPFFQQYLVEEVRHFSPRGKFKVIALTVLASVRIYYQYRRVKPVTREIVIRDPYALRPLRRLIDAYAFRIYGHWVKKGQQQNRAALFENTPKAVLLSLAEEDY
Sequence of Tyrosine-protein kinase Tec (Homo sapiens) (P42680 whole entry): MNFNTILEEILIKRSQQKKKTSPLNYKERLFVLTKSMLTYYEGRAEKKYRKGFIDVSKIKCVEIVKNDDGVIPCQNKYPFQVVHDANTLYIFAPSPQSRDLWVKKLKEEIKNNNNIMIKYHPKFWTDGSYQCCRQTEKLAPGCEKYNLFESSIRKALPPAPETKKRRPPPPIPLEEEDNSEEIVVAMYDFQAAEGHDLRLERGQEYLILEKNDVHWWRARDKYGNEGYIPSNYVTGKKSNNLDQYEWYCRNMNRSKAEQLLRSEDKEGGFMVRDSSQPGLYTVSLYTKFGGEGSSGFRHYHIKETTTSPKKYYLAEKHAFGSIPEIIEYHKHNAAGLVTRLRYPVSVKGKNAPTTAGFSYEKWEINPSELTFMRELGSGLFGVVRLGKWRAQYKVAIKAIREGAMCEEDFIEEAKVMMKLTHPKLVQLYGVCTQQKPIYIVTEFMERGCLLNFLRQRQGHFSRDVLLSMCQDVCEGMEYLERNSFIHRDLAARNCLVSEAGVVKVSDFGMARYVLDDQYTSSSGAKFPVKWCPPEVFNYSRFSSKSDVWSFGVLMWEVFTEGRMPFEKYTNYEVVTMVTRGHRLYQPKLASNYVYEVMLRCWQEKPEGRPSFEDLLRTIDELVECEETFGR
Sequence of High affinity nerve growth factor receptor (Homo sapiens) (P04629 33-796 limits assumed): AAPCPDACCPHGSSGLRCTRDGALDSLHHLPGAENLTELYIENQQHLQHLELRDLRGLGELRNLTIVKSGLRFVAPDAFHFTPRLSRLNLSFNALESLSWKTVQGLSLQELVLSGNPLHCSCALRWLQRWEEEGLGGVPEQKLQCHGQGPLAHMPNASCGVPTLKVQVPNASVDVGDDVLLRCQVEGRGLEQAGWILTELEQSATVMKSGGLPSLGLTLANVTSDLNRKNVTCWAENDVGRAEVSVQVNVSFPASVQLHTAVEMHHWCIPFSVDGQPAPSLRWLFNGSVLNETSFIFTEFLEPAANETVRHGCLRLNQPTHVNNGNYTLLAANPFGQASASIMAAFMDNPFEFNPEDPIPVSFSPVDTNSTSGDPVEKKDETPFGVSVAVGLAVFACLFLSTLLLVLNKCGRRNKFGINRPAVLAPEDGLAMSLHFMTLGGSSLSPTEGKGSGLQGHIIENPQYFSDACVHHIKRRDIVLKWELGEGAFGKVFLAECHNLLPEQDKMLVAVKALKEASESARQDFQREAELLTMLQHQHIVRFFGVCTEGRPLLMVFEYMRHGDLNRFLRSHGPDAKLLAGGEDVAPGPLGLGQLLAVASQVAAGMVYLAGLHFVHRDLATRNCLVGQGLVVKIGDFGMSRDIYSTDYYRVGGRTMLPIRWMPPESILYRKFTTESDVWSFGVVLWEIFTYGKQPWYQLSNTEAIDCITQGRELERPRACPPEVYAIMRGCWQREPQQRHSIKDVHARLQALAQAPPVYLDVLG

CN1C(=O)[C@@H](NC(=O)c2n[nH]c3ncc(C(F)(F)C(F)(F)F)cc23)COc2ccccc21
inhibition [1]: 0% | inhibition [2]: 9% | inhibition [3]: 0% | inhibition [4]: 1.5% | inhibition [5]: 6% | inhibition [6]: 3% | inhibition [7]: 18% | inhibition [8]: 6.5% | inhibition [9]: -4.5% | inhibition [10]: 3.5% | inhibition [11]: 15% | inhibition [12]: 3% | inhibition [13]: -0.5% | inhibition [14]: -2% | inhibition [15]: 5% | inhibition [16]: -5% | inhibition [17]: 5% | inhibition [18]: 3% | inhibition [19]: 8% | inhibition [20]: 5% | inhibition [21]: -0.5% | half-life [22]: 288 min | inhibition [23]: 0.5% | inhibition [24]: 6% | inhibition [25]: 2.5%
